In patent US20060276502A1, “Pharmaceutical use of 1-azabicyclo[2.2.2]octanes and a method of testing compounds for the ability of activating inactive wt p53” (priority 2003, published 2006):

Experiments:
[1] = test system: C8161 melanoma cells (truncated, unfunctional p53); assay: C8161 melanoma tumour growth s.c. in C57/BL nude mice; format: in vivo; settings: 100 mg/kg for 6 d starting 6 d after inoculation
Protocol: (§1) Tumour volumes were monitored for melanoma growth, as described in the preceding paragraph. Tumour volume over time was determined by the formula: width^2×length×0,52. […] In the Figure, ♦ represents M21; □ M21L; ▴ Lp53His175-0; and ★ Lp53His175-8. M21Lp53His175-0 and M21Lp53His175-8 formed large tumours similar in size to M21 tumours. However, M21L cells lacking integrin αvβ3 typically grew only minimal or developed no tumours.
(§2) To test if restoration of an active wt p53 conformation by PRIMA-1 could also induce melanoma cell apoptosis in vivo and thereby block melanoma tumour growth, M21 and C8161 melanoma cells (1,5×10^6) were injected s.c. into the back of 6-week-old C57/BL nude mice. The mice were treated with or without PRIMA-1 (100 mg/kg) for 6 d starting 6 d after tumour innoculation.

p53 = assay: Western blot of p53 acetylation and p53 target proteins in M21 tumours grown in nude mice after a single PRIMA-1 injection; format: in vivo; settings: 24 h and 36 h after single injection
Description: Thus, acetylation of p53-Lys382 is potentially involved in p53 activation by PRIMA-1, while Apaf-1 and PUMA are potential downstream mediators of PRIMA-1- and p53-induced melanoma cell apoptosis in vivo.

[2] = test system: M21 melanoma cells (wt p53); assay: M21 melanoma tumour growth s.c. in C57/BL nude mice; format: in vivo; settings: 100 mg/kg for 6 d starting 6 d after inoculation, versus PBS control
Protocol: as §1, §2

wt p53 = target: T1, wt p53 (Homo sapiens, UniProt P04637); assay: p53 conformation by ELISA with Pab 1620, Pab 240 and DO 1 in melanoma cells in 3D-collagen; format: cell-based
T1 construct: endogenous in cells; host or cells: M21, M21L and AA human melanoma cells
Protocol: Data shown in FIG. 2D represents Pab 1620 and Pab 240 reactivity as percentage of D01 reactivity (total p53).
PRIMA-1 is a substance known from WO0224692 to be able to reactivate the apoptosis-inducing function of mutant p53 proteins. […] The p53 conformation was examined as described above. […] To this end, p53 conformation was also analyzed in AA human melanoma cells expressing αv β3 integrin and wt p53 before and after incubation within 3D collagen (FIG. 4B).

Caspase 9 = assay: Western blot of Caspase 9 activation in M21 tumours grown in nude mice; format: in vivo; settings: 24 h and 36 h after single injection
Description: Caspase 9 is therefore a potential downstream effector of PRIMA-1- and p53-induced apoptosis in melanoma cells in vivo.

M21 human melanoma cells = assay: Apoptosis by FITC-Annexin-V staining / FACS of M21 melanoma cells; format: cell-based
Protocol: With reference to FIG. 1A, the maternal human melanoma cells M21, expressing integrin αvβ3, and a subpopulation, M21L, lacking integrin αvβ3 were cultured in a three-dimensional collagen gel (3D-collagen). At indicated times, apoptosis was detected by FITC-Annexin-V staining.
Apoptosis was analyzed in M21 cells grown under 2D culture conditions or within 3D-collagen with or without PRIMA-1 treatment for 16, 24, 36 and 48 h. […] This also verifies the results using dn p53 and p53-siRNA (FIG. 3) in an independent manner.

caspase-8 = assay: Western blot for cleavage of caspase-8, control Jurkat cells; format: cell-based; settings: cycloheximide-treated Jurkate cells

O=C1C2CCN(CC2)C1(CO)CO [PRIMA-1, 2,2-bis(hydroxymethyl)-1-azabicyclo[2.2.2]octan-3-one]
melanoma growth (mean tumour volume) [1]: no effect | Apaf-1 protein level (p53): induces | PUMA protein level (p53): induces | acetylation of p53-Lys382 (p53): induces | melanoma growth (mean tumour volume) [2]: significantly inhibited | p53 conformation (Pab 1620 / Pab 240 reactivity) (wt p53; AA human melanoma cells (αvβ3, wt p53), 100 μM PRIMA-1, 5 d in 3D collagen): enforced p53 into an active conformation | p53 conformation (Pab 1620 / Pab 240 reactivity) (wt p53; M21 cells (αvβ3+), 100 μM PRIMA-1, 3D-collagen, 7 d): restore active p53 conformation from an unfolded inactive state | activation of Caspase 9 (Caspase 9): activation of Caspase 9 | apoptosis (Annexin V staining) (M21 human melanoma cells; 100 μM PRIMA-1, 16, 24, 36 and 48 h, 3D collagen versus 2D culture): promoted apoptosis in M21 cells (αvβ3+) within 3D collagen to a much higher degree than in 2D culture | apoptosis (Annexin-V staining) (M21 human melanoma cells; 36 h in 3D collagen, 80 μM PRIMA-1): induces melanoma cell apoptosis

C[C@@H]1C[C@@H]([C@H](O)CC2CC(=O)NC(=O)C2)C(=O)[C@@H](C)C1 [cycloheximide]
caspase-8 cleavage (caspase-8): displayed caspase-8 cleavage

Z-LEHD-FMK x TFA [reference compound]
effect on PRIMA-1 induced apoptosis (M21 human melanoma cells; 36 h in 3D-collagen, with 80 μM PRIMA-1): blocked
